Measured values published in patent US9120749B2, “Quinoline derivatives and MELK inhibitors containing the same” (ONCOTHERAPY SCIENCE, INC., priority 2010, dated 2015).
Where a name gives a salt, the structure may show the parent alone. Read-outs that look alike come from different tables or passages of the source.

How the values were obtained:
[1] = target: MELK (Homo sapiens, UniProt Q14680); assay: Kinase assay: MELK activity, phosphorylation of FITC-labeled histone H3 peptide measured by IMAP fluorescence polarization; assay type: biochemical; conditions: read-out: IC50 (μM) (kinase assay)
Chain of MELK (Q14680 whole entry, looked up): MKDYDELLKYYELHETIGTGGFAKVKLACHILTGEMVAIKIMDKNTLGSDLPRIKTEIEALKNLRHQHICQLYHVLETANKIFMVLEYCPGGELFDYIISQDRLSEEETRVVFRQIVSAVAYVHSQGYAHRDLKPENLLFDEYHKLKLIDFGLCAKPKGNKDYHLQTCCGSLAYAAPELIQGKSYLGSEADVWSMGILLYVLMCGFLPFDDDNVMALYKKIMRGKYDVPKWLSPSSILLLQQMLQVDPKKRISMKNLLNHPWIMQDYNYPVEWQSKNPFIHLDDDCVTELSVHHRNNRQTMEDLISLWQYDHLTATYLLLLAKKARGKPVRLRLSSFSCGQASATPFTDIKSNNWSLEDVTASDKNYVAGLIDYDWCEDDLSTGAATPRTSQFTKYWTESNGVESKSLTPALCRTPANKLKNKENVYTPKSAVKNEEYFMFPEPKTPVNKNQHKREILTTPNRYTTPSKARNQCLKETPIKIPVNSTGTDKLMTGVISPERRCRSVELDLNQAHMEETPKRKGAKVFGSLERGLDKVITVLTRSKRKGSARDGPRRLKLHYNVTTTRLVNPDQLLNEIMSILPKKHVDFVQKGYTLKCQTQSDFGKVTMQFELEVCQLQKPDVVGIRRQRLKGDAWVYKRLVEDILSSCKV
Method in brief: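 Compounds, serially diluted from 12.5 mM DMSO stocks to 1% final DMSO, were tested with FITC-labeled histone H3 peptide as substrate. The reaction was stopped with progressive binding solution. Fluorescence polarization was read after 0.5 hour at room temperature.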

[2] = tested on: T47D cells; assay: Cell-based assay: anti-proliferative activity, Cell Counting Kit-8, 72 hours (T47D)
Method in brief: (§1)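 Anti-MELK western blot on crude lysates → MELK status per line. Cells plated 96-well, compound exposure, CCK-8 readout at 72 h; IC50 calculated.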

[3] = tested on: A549 cells; assay: Cell-based assay: anti-proliferative activity, Cell Counting Kit-8, 72 hours (A549); conditions: 72 hours
Method in brief: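 Cell Counting Kit-8 read-out of A549 growth after 72 hours of inhibitor exposure, cells plated in 96-well format. Values reported as IC50.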

[4] = tested on: HT-1197 cells; assay: Cell-based assay: anti-proliferative activity, Cell Counting Kit-8, 72 hours (HT-1197, negative control without MELK expression); conditions: HT1197 cells (negative control), 72 hours
Method in brief: as §1

[5] = tested on: DU4475 cells; assay: Cell-based assay: anti-proliferative activity, Cell Counting Kit-8, 72 hours (DU4475)

Structure (SMILES) | IC50 [1] [µM] | IC50 ([2]; Homo sapiens, T47D, 72 h) [µM] | IC50 ([3]; Homo sapiens, A549, 72 h) [µM] | IC50 ([4]; Homo sapiens, HT1197, 72 h) [µM] | IC50 ([5]; Homo sapiens, DU-4475, 72 h) [µM] | IC50 ([1]; hydrochloride) [µM] | IC50 ([2]; 72 hours, hydrochloride) [µM] | IC50 ([3]; hydrochloride) [µM] | IC50 ([4]; hydrochloride) [µM] | IC50 ([5]; hydrochloride) [µM]
NC1CCN(c2ccc(Nc3c(C(=O)C4CC4)cnc4ccc(-c5cc(Cl)c(O)c(Cl)c5)cc34)cn2)CC1 [Example 548, (4-(6-(4-aminopiperidin-1-yl)pyridin-3-ylamino)-6-(3,5-dichloro-4-hydroxyphenyl)quinolin-3-yl)(cyclopropyl)methanone] | 0.002 | 0.097 | 0.45 | 3.4 | 0.099 | – | – | – | – | –
COC1CCN(C[C@H]2CC[C@H](Nc3c(C(=O)C4CC4)cnc4ccc(-c5cc(Cl)c(O)c(Cl)c5)cc34)CC2)C1 (stereo partly drawn) [Example 598, cyclopropyl(6-(3,5-dichloro-4-hydroxyphenyl)-4-((trans-4-((3-methoxypyrrolidin-1-yl)methyl)cyclohexyl)amino)quinolin-3-yl)methanone] | 0.0023 | 0.18 | 0.13 | 1 | 0.066 | – | – | – | – | –
COc1cc(-c2ccc3ncc(C(=O)C4CC4)c(Nc4cccc(CN(C)C)c4)c3c2)cc(Cl)c1O [Example 622, (6-(3-chloro-4-hydroxy-5-methoxyphenyl)-4-(3-((dimethylamino)methyl)phenylamino)quinolin-3-yl)(cyclopropyl)methanone] | 0.0037 | 1.1 | 0.43 | 5.5 | 0.32 | – | – | – | – | –
CN(C)C[C@H]1CC[C@@H](Nc2c(C(=O)C3CC3)cnc3ccc(-c4cc(F)c(O)c(Cl)c4)cc23)CC1 [Example 514, (6-(3-chloro-5-fluoro-4-hydroxyphenyl)-4-((1s,4s)-4-((dimethylamino)methyl)cyclohexylamino)quinolin-3-yl)(cyclopropyl)methanone] | 0.0028 | 0.44 | 0.26 | 0.77 | 0.21 | – | – | – | – | –
CN[C@H]1CC[C@H](Nc2c(C(=O)C3CC3)cnc3ccc(-c4cc(Cl)c(O)c(Cl)c4)cc23)CC1 [Example 510, Cyclopropyl{6-(3,5-dichloro-4-hydroxyphenyl)-4-[trans-4-(methylamino)cyclohexylamino]quinolin-3-yl}methanone] | 0.0019 | 0.054 | 0.12 | 1 | 0.018 | – | – | – | – | –
NC1CCN(c2ncc(Nc3c(C(=O)C4CC4)cnc4ccc(-c5cc(Cl)c(O)c(Cl)c5)cc34)cn2)CC1 [Example 566, (4-(2-(4-aminopiperidin-1-yl)pyrimidin-5-ylamino)-6-(3,5-dichloro-4-hydroxyphenyl)quinolin-3-yl)(cyclopropyl)methanone] | 0.003 | 0.11 | 0.4 | 2.6 | 0.13 | – | – | – | – | –
COc1cc(-c2ccc3ncc(C(=O)C4CC4)c(N[C@H]4CC[C@H](CN5CCC(OC)C5)CC4)c3c2)cc(Cl)c1O (stereo partly shown) [Example 599] | 0.005 | 0.51 | 0.54 | 2.8 | 0.37 | – | – | – | – | –
COc1cc(-c2ccc3ncc(C(=O)C4CC4)c(N[C@H]4CC[C@@H](CN(C)CC#N)CC4)c3c2)cc(Cl)c1O [Example 518, 2-((((1R,4R)-4-(6-(3-chloro-4-hydroxy-5-methoxyphenyl)-3-(cyclopropanecarbonyl)quinolin-4-ylamino)cyclohexyl)methyl)(methyl)amino)acetonitrile] | 0.013 | 0.16 | 0.17 | 3.4 | 0.078 | – | – | – | – | –
NC1CCCN(c2ncc(Nc3c(C(=O)C4CC4)cnc4ccc(-c5cc(Cl)c(O)c(Cl)c5)cc34)cn2)C1 (stereo not shown) [Example 628, (4-(2-(3-aminopiperidin-1-yl)pyrimidin-5-ylamino)-6-(3,5-dichloro-4-hydroxyphenyl)quinolin-3-yl)(cyclopropyl)methanone] | 0.0015 | 0.0069 | 0.019 | 0.33 | 0.0056 | – | – | – | – | –
COc1cc(-c2cc3c(Nc4ccc(N5CCNCC5)nc4)c(C(=O)C4CC4)cnc3cc2F)cc(Cl)c1O [Example 578, (6-(3-chloro-4-hydroxy-5-methoxyphenyl)-7-fluoro-4-(6-(piperazin-1-yl)pyridin-3-ylamino)quinolin-3-yl)(cyclopropyl)methanone] | 0.021 | 3 | 1.9 | 8 | 2.8 | – | – | – | – | –
O=C(c1cnc2ccc(-c3cc(Cl)c(O)c(Cl)c3)cc2c1N[C@H]1CC[C@H](CN2CCCC2)CC1)C1CC1 [Example 584, cyclopropyl(6-(3,5-dichloro-4-hydroxyphenyl)-4-((trans-4-(pyrrolidin-1-ylmethyl)cyclohexyl)amino)quinolin-3-yl)methanone] | 0.0016 | 0.13 | 0.071 | 0.86 | 0.053 | – | – | – | – | –
CCCC(=O)c1cnc2ccc(-c3cc(Cl)c(O)c(Cl)c3)cc2c1Nc1ccc(CN(C)C)cc1 [Example 530, 1-(6-(3,5-dichloro-4-hydroxyphenyl)-4-((4-((dimethylamino)methyl)phenyl)amino)quinolin-3-yl)butan-1-one] | 0.0045 | 0.07 | 0.15 | 1.2 | 0.086 | – | – | – | – | –
CN(C)Cc1cccc(Nc2c(C(=O)C3CC3)cnc3ccc(-c4cc(Cl)c(O)c(Cl)c4)cc23)c1 [Example 624, cyclopropyl(6-(3,5-dichloro-4-hydroxyphenyl)-4-(3-((dimethylamino)methyl)phenylamino)quinolin-3-yl)methanone] | 0.0016 | 0.55 | 0.089 | 3 | 0.043 | – | – | – | – | –
COc1cc(-c2ccc3ncc(C(=O)C4CC4)c(N[C@H]4CC[C@H](CN5CCCC5)CC4)c3c2)cc(Cl)c1O [Example 586] | 0.0028 | 0.38 | 0.2 | 3 | 0.19 | – | – | – | – | –
CN(C)CCc1ccc(Nc2c(C(=O)C3CC3)cnc3ccc(-c4cc(F)c(O)c(Cl)c4)cc23)cc1 [Example 615, (6-(3-chloro-5-fluoro-4-hydroxyphenyl)-4-(4-(2-(dimethylamino)ethyl)phenylamino)quinolin-3-yl)(cyclopropyl)methanone] | 0.0082 | 0.17 | 0.086 | 1.4 | 0.042 | – | – | – | – | –
O=C(c1cnc2ccc(-c3cc(Cl)c(O)c(Cl)c3)cc2c1N1CCC(C2CCNCC2)CC1)C1CC1 [Example 596, (4-(4,4′-bipiperidin-1-yl)-6-(3,5-dichloro-4-hydroxyphenyl)quinolin-3-yl)(cyclopropyl)methanone] | 0.0016 | 0.18 | 1.5 | 5.1 | 0.14 | – | – | – | – | –
COc1cc(-c2ccc3ncc(C(=O)C4CC4)c(N[C@H]4CC[C@@H](CN(C)C)CC4)c3c2)cc(Cl)c1O [Example 513] | 0.002 | 0.19 | 0.099 | 3.8 | 0.086 | – | – | – | – | –
CN(CC#N)C[C@H]1CC[C@@H](Nc2c(C(=O)C3CC3)cnc3ccc(-c4cc(F)c(O)c(Cl)c4)cc23)CC1 [Example 524, 2-((((1R,4R)-4-(6-(3-Chloro-5-fluoro-4-hydroxyphenyl)-3-(cyclopropanecarbonyl)quinolin-4-ylamino)cyclohexyl)methyl)(methyl)amino)acetonitrile] | 0.01 | 0.2 | 0.39 | 1.7 | 0.1 | – | – | – | – | –
O=C(c1cnc2ccc(-c3cc(Cl)c(O)c(Cl)c3)cc2c1Nc1cnn(C2CCNCC2)c1)C1CC1 [Example 511, cyclopropyl(6-(3,5-dichloro-4-hydroxyphenyl)-4-((1-(piperidin-4-yl)-1H-pyrazol-4-yl)amino)quinolin-3-yl)methanone] | 0.017 | 0.18 | 0.31 | 10 | 0.019 | – | – | – | – | –
NC1CCN(c2ccc(Nc3c(C(=O)C4CC4)cnc4ccc(-c5cc(Cl)c(O)c(Cl)c5)cc34)cn2)CC1 [Example 549, (4-(6-(4-Aminopiperidin-1-yl)pyridin-3-ylamino)-6-(3,5-dichloro-4-hydroxyphenyl)quinolin-3-1)(cyclopropyl)methanone hydrochloride] | – | – | – | – | – | 0.0027 | 0.15 | 0.48 | 3.2 | 0.078
COc1cc(-c2ccc3ncc(C(=O)C4CC4)c(N4CCC(C5CCNCC5)CC4)c3c2)cc(Cl)c1O [Example 595, (4-(4,4′-bipiperidin-1-yl)-6-(3-chloro-4-hydroxy-5-methoxyphenyl)quinolin-3-yl)(cyclopropyl)methanone] | 0.0042 | 0.41 | 0.57 | 3.4 | 0.64 | – | – | – | – | –
CC(=O)c1cnc2ccc(-c3cc(Cl)c(O)c(Cl)c3)cc2c1Nc1ccc(C(N)=O)cc1 [Example 545, 4-(3-acetyl-6-(3,5-dichloro-4-hydroxyphenyl)quinolin-4-ylamino)benzamide] | 0.019 | 0.62 | 3.9 | 16 | 0.56 | – | – | – | – | –
O=C(c1cnc2ccc(-c3cc(Cl)c(O)c(Cl)c3)cc2c1Nc1ccc(NC2CCCNC2)nc1)C1CC1 (stereo not shown) [Example 610, cyclopropyl(6-(3,5-dichloro-4-hydroxyphenyl)-4-(6-(piperidin-3-ylamino)pyridine-3-ylamino)quinolin-3-yl)methanone] | 0.0017 | 0.22 | 0.39 | 10 | 0.073 | – | – | – | – | –
